Assays:
Type in all cases: cell-based, Hepatitis C virus
[1] = tested on: HCV genotype 1a H77 strain subgenomic luciferase replicon; test: HCV replicon assay, genotype 1a; conditions: Hepatitis C virus, read-out: 1a IC50 (nM), HCV genotype 1a
Procedure: (§1) The HCV luciferase replicon assay measures the ability of a test compound to inhibit HCV replication in cell culture after 3 days of treatment in a human hepatoma cell line (Huh-7) bearing an HCV replicon containing a luciferase-neomycin phosphotransferase fusion gene. The inhibition of HCV replication was measured by quantification of luciferase protein expression. Briefly, Huh-7 cells containing either the HCV genotype 1a H77 strain or genotype 1b Con1 strain subgenomic luciferase replicon (H1a-luc or Zluc, respectively) were grown in DMEM containing glucose, L-glutamine and sodium pyruvate, 10% fetal bovine serum (FBS), 100 IU/mL penicillin, 100 μg/mL streptomycin, 2 mM GlutaMAX, non-essential amino acids and 0.25 (H1a-luc) or 0.5 (Zluc) mg/mL G418. GlutaMAX was obtained from Invitrogen, Corp.; all other media reagents were obtained from Mediatech, Inc. For dose-response testing, the cells were seeded in 96-well plates at 1×10^4 (H1a-luc) or 7.5×10^3 (Zluc) cells/well in a volume of 50 μL, and incubated at 37° C./5% CO2. Three hours after plating, 50 μL of ten 5-fold serial dilutions of compound were added, and cell cultures were incubated at 37° C./5% CO2 for 72 hours. In all cases, Huh-7 cells lacking the HCV replicon served as negative control. To assess luciferase expression, the media/compound was removed from the plates and ONE-glo Luciferase assay reagent (Promega) was added to each well. The assay plates were shaken for 3 minutes at room temperature and luciferase activity for each well was measured with a 1 sec read time on the Victor^3V multilabel counter using a 700 nm cut-off filter (Perkin Elmer). EC50 values were calculated from dose response curves from the resulting best-fit equations determined by Microsoft Excel and XLfit 4.1 software.

[2] = tested on: HCV 1aY93H mutant replicon; test: HCV replicon assay, genotype 1a Y93H mutant; conditions: Hepatitis C virus, read-out: 1aY93H IC50 (nM), HCV genotype 1a, Y93H mutant
Procedure: General procedure: The luciferase replicon transient transfection assay measures the ability of a test compound to inhibit the replication of a transiently-transfected HCV luciferase-bearing wild-type or mutant replicon in cured human hepatoma cells (Huh7.5). The inhibition of HCV replication was measured by quantification of luciferase protein expression. This assay has been validated using a panel of genotype 1a and 1b replicons bearing mutations known to be associated with resistance to BMS-790052. Briefly, subconfluent Huh7.5 cells were electroporated with 10 μg of wild-type or mutant luciferase-bearing HCV replicon RNA. The cells were then seeded in 96-well opaque white plates at 3×10^4 cells/well in 150 μL/well and incubated for 4 hrs at 37° C./5% CO2. Ten 1:5 serial dilutions of each test compound were made in media (DMEM containing glucose, L-glutamine and sodium pyruvate, 10% fetal bovine serum, 100 IU/mL penicillin, 100 μg/mL streptomycin, 2 mM GlutaMAX, and 1×MEM non-essential amino acids (Mediatech, Inc. and Invitrogen Corp.)) at concentrations that were 4× higher than the final concentrations to be tested and 50 μL/well was added to the transfected cells. Untreated, mock-transfected cells served as a negative control of luciferase expression. The plates were incubated at 37° C./5% CO2 for 4 days whereupon the media was removed and 50 μL of ONE-glo luciferase substrate (Promega) was added to each well. The plates were agitated on a rotating platform at room temperature for 3 min and read in a Victor^3V microplate reader (Perkin-Elmer) using a 700 nm cut-off filter with a 1 sec read time. EC50 values were calculated from dose response curves from the resulting best-fit equations determined by Microsoft Excel and XLfit 4.1 software.

[3] = tested on: HCV genotype 1b Con1 strain subgenomic luciferase replicon; test: HCV replicon assay, genotype 1b; conditions: Hepatitis C virus
Procedure: as §1

HCV 2b = test: HCV replicon assay, genotype 2b; conditions: Hepatitis C virus, read-out: 2b IC50 (nM), HCV genotype 2b
[4] = tested on: HCV genotype 3a NS5A within the 1b-replicon; test: HCV replicon assay, genotype 3a (NS5A intergenotypic stable cell line); conditions: Hepatitis C virus, read-out: 3a IC50 (nM), HCV genotype 3a
Text: The nucleotide sequences of the NS5A region of genotype 2a (GenBank Accession # AB047639), genotype 3a (GenBank Accession # D17763), and genotype 4a (GenBank Accession # DQ418788) were synthesized by an outside vendor. The NS5A region of each of these genotypes included the first 11 amino acids of the protease recognition sequence of genotype 1b, as well as the last 10 amino acids of genotype 1b. The NS5A gene cassettes were excised with site specific restriction endonucleases and ligated into a ZS11-luciferase genotype 1b backbone (backbone contains the genotype 1b NS3 protease, NS4a, NS4b, and NS5b coding regions) with similarly cut restriction enzyme sites. Thus, the newly constructed plasmid contains a genotype 2a-, 3a- or 4a-specific NS5A gene within the 1b-replicon.
These new intergenotypic plasmids were used to establish stable cell lines. RNA was generated from the NS5A intergenotypic plasmids and used in conjunction with a lipofectin reagent to transfect a cured Huh7 cell line. Transfected cells were selected for with G418. After selection has occurred the stable cell lines were propagated, tested for luciferase activity, and RT-PCR with genotype specific primers (either 1a, 2a, 3a, or 4a). Stable cell lines containing the intergenotypic replicon were then fully sequenced and analyzed for proper expression of NS3, NS5A and NS5B proteins.
Drug titration analysis was performed using the luciferase replicon assay described herein.
as §1

| SMILES | IC50 [1] [nM] | IC50 [2] [nM] | IC50 [3] [nM] | IC50 (HCV 2b) [nM] | IC50 [4] [nM] |
| --- | --- | --- | --- | --- | --- |
| CCC1(CC)c2ccc(-c3cnc([C@@H]4CCCN4C(=O)[C@H](NC(=O)OC)C4CCOCC4)[nH]3)cc2Oc2cc3ccc(-c4cnc([C@@H]5CCCN5C(=O)[C@@H](NC(=O)OC)C5CCOCC5)[nH]4)cc3cc21 [Compound 17, methyl [(1R)-2-[(2S)-2-{5-[12,12-diethyl-9-(2-{(2S)-1-[(2S)-2-[(methoxycarbonyl)amino]-2-(tetrahydro-2H-pyran-4-yl)acetyl]pyrrolidin-2-yl}-1H-imidazol-5-yl)-12H-benzo[b]xanthen-3-yl]-1H-imidazol-2-yl}pyrrolidin-1-yl]-2-oxo-1-(tetrahydro-2H-pyran-4-yl)ethyl]carbamate] | 0.0034 | 0.046 | 0.0305 | 0.028 | 0.055 |
| COC(=O)N[C@H](C(=O)N1CCC[C@H]1c1ncc(-c2ccc3c(ccc4oc5ccc(-c6cnc([C@@H]7CCCN7C(=O)[C@@H](NC(=O)OC)C(C)C)[nH]6)cc5c(=O)c43)c2)[nH]1)C(C)C [Compound 25, methyl [(1S)-1-({(2S)-2-[5-(10-{2-[(2S)-1-{(2S)-2-[(methoxycarbonyl)amino]-3-methylbutanoyl}pyrrolidin-2-yl]-1H-imidazol-5-yl}-12-oxo-12H-benzo[a]xanthen-3-yl)-1H-imidazol-2-yl]pyrrolidin-1-yl}carbonyl)-2-methylpropyl]carbamate] | 0.167 | ≥ 100 | 0.107 | ≥ 100 | ≥ 1 |
| COC(=O)N[C@H](C(=O)N1CCC[C@H]1c1ncc(-c2ccc3c(F)c4oc5ccc(-c6cnc([C@@H]7CCCN7C(=O)[C@@H](NC(=O)OC)C(C)C)[nH]6)cc5c(=O)c4cc3c2)[nH]1)C(C)C [Compound 26, methyl [(1S)-1-({(2S)-2-[5-(6-fluoro-9-{2-[(2S)-1-{(2S)-2-[(methoxycarbonyl)amino]-3-methylbutanoyl}pyrrolidin-2-yl]-1H-imidazol-5-yl}-12-oxo-12H-benzo[b]xanthen-2-yl)-1H-imidazol-2-yl]pyrrolidin-1-yl}carbonyl)-2-methylpropyl]carbamate] | ≥ 1 | ≥ 100 | 1 | ≥ 100 | ≥ 1 |
| COC(=O)N[C@H](C(=O)N1C[C@H](F)C[C@H]1c1ncc(-c2ccc3c(ccc4oc5ccc(-c6cnc([C@@H]7C[C@@H](F)CN7C(=O)[C@@H](NC(=O)OC)C(C)C)[nH]6)cc5c(=O)c43)c2)[nH]1)C(C)C [Compound 27, methyl [(1S)-1-({(2S,4R)-4-fluoro-2-[5-(10-{2-[(2S,4R)-4-fluoro-1-{(2S)-2-[(methoxycarbonyl)amino]-3-methylbutanoyl}pyrrolidin-2-yl]-1H-imidazol-5-yl}-12-oxo-12H-benzo[a]xanthen-3-yl)-1H-imidazol-2-yl]pyrrolidin-1-yl}carbonyl)-2-methylpropyl]carbamate] | ≥ 1 | 96.6 | 0.591 | ≥ 100 | ≥ 1 |
| COC(=O)N[C@H](C(=O)N1C[C@H](F)C[C@H]1c1ncc(-c2ccc3c(ccc4oc5cc(-c6cnc([C@@H]7C[C@@H](F)CN7C(=O)[C@@H](NC(=O)OC)C(C)C)[nH]6)ccc5c(=O)c43)c2)[nH]1)C(C)C [Compound 28, methyl [(1S)-1-({(2S,4R)-4-fluoro-2-[5-(9-{2-[(2S,4R)-4-fluoro-1-{(2S)-2-[(methoxycarbonyl)amino]-3-methylbutanoyl}pyrrolidin-2-yl]-1H-imidazol-5-yl}-12-oxo-12H-benzo[a]xanthen-3-yl)-1H-imidazol-2-yl]pyrrolidin-1-yl}carbonyl)-2-methylpropyl]carbamate] | 0.0292 | 1.18 | 0.00445 | 89.8 | ≥ 1 |
| COC(=O)N[C@H](C(=O)N1C[C@H](F)C[C@H]1c1ncc(-c2ccc3c(F)c4oc5ccc(-c6cnc([C@@H]7C[C@@H](F)CN7C(=O)[C@@H](NC(=O)OC)C(C)C)[nH]6)cc5c(=O)c4cc3c2)[nH]1)C(C)C [Compound 29, methyl [(1S)-1-({(2S,4R)-4-fluoro-2-[5-(6-fluoro-9-{2-[(2S,4R)-4-fluoro-1-{(2S)-2-[(methoxycarbonyl)amino]-3-methylbutanoyl}pyrrolidin-2-yl]-1H-imidazol-5-yl}-12-oxo-12H-benzo[b]xanthen-2-yl)-1H-imidazol-2-yl]pyrrolidin-1-yl}carbonyl)-2-methylpropyl]carbamate] | ≥ 1 | ≥ 100 | 1 | ≥ 100 | ≥ 1 |
| COC(=O)N[C@H](C(=O)N1CCC[C@H]1c1ncc(-c2ccc3c(ccc4oc5cc(-c6cnc([C@@H]7CCCN7C(=O)[C@@H](NC(=O)OC)C(C)C)[nH]6)ccc5c(=O)c43)c2)[nH]1)C(C)C [Compound 33, methyl [(1S)-1-({(2S)-2-[5-(9-{2-[(2S)-1-{(2S)-2-[(methoxycarbonyl)amino]-3-methylbutanoyl}pyrrolidin-2-yl]-1H-imidazol-5-yl}-12-oxo-12H-benzo[a]xanthen-3-yl)-1H-imidazol-2-yl]pyrrolidin-1-yl}carbonyl)-2-methylpropyl]carbamate] | 0.003 | 18.4 | 0.00333 | 14.1 | ≥ 1 |
